The subject of one assay is Pennsylvania smartweed. Put plainly: Ex15 PRE 2,4-DC + S-metolachlor, % control 28 DAT, Colby. Type of assay: in vivo, Polygonum pensylvanicum. The text has this:
The weeds tested in this study were redroot pigweed (Amaranthus retroflexus, AMARE), Jimsonweed (Datura stramonium, DATST), black nightshade (Solanum nigrum, SOLNI), large crabgrass (Digitaria sanguinalis, DIGSA), Pennsylvania smartweed (Polygonum pensylvanicum, POLPY), horseweed (Conyza canadensis, ERICA), wild buckwheat (Polygonum convolvulus, POLCO). The crop tested was Corn (var. Viking).
To determine PRE efficacy and corn injury, five rates of each 2,4 DC (36.7% CS) and S-metolachlor (Dual II Magnum®, 82.4%) were applied either alone or as tank-mix. 2,4 DC was applied at 0, 125, 170, 210, or 250 g ai/ha and S-metolachlor was applied at 0, 267, 534, 801, or 1070 g ai/ha. Additional treatments included application of premix of pyroxasulfone plus fluthiacet-methyl (Anthem™ 23.3%) at 169.9 g ai/ha and tank-mix of mesotrione (Callisto®, 40%) at 123 g plus S-metolachlor at 1252 g. Treatments were applied just after the planting of large crabgrass, Jimsonweed, black nightshade, redroot pigweed, Pennsylvania smartweed, horseweed, wild buckwheat, and corn.
Flats were watered and fertilized routinely after treatment application. Each treatment was replicated three times. […] Corn injury was rated for bleaching and stunting.

The next assay deals with barnyardgrass (BG). Put plainly: Ex5 PRE greenhouse, % control. Type of assay: in vivo, Echinochloa crus-galli. The note with it: 28 DAT, g ai/ha by row: r10-26 2,4-DC 50/100/200 (3 rows each) + mesotrione 25/50/100 (cycling). On the procedure: Test compositions containing 2,4-DC Example 1C and mesotrione (Callisto® Herbicide, 40% active ingredient, Syngenta) and mixtures of 2-(2,4-dichlorophenyl)methyl-4,4-dimethyl-3-isoxazolidinone and mesotrione, were diluted with water to provide the appropriate test rate concentration.
The test weeds were barnyardgrass (BG) (Echinochloa crus-galli), jimsonweed (PA) (Datura stramonium), velvetleaf (VL) (Abutilon theophrasti), common cockelbur (CC) (Xanthium strumarium) and hairy beggarticks (HB) (Bidens pilosa). Crops included in the evaluation were field corn and sorghum.
For pre-emergence testing, four disposable fiber flats (6″ by 10″) for each rate of application of each herbicide solution were filled with top soil, to which seeds of each species were planted in furrows made by a template pressed on the top of the soil. The furrows with seeds were covered with soil and were watered well before application of the test compounds. Flats designated for treatment were placed in a spray chamber having a static platform and a movable sprayer and height of the spray nozzle was 10.5 inches above the soil level. Once the sprayer was calibrated using water for spray volume of 30 gallons per acre, flats were sprayed with sprayer at a speed to receive a coverage equivalent of 30 gallons per acre.
The application rates are those shown in Table 4 below for the individual herbicidal solutions and the herbicide compositions of the present invention. The pre-emergence flats were immediately placed in the greenhouse and watered lightly after treatment. Thereafter they were regularly watered and fertilized for the duration of the test. The control of weeds and injury to crops was evaluated in each experimental test at 28 days after treatment (DAT). […] Percent control was determined by a method similar to the 0 to 100 rating system disclosed in “Research Methods in Weed Science,” 2nd ed., B. Truelove, Ed.; Southern Weed Science Society; Auburn University, Auburn, Ala., 1977.

The test system of a further assay is Common cocklebur. Put plainly: Ex37 PRE 2,4-DC + atrazine, % control 28 DAT, Colby. Type of assay: in vivo, Xanthium strumarium. The text has this:
S-metolachlor (DUAL II MAGNUM®, 82.4%) at 525 g ai/h plus atrazine at 560 g ai/h was included as a standard for comparison. […] Thereafter flats were watered and fertilized routinely.

The test system of assay [1] is weeds; Wheat and canola. In words: Ex29 PRE greenhouse. Type of assay: in vivo. The note with it: 28 DAT, weed, crop, rate in the words. The text has this:
The tested weeds include Italian ryegrass (Lolium perenne. multiflorum, LOLMU), wild mustard (Sinapis arvensis, SINAR), annual bluegrass (Poa annua, POAAN), wild oat (Avena fatua, AVEFA), blackgrass (Alopecurus myosuroides, ALOMY), common lambsquarters (Chenopodium album, CHEAL), littleseed canarygrass (Phalaris minor, PHAMI), common chickweed (Stellaria media, STEME), corn poppy (Papaver rhoeas, PAPRH), redroot pigweed (Amaranthus retroflexus, AMARE), silky windgrass (Apera spica-venti, APSEV), wild buckwheat (Polygonum convolvulus, POLCO). The crops teased were Wheat and canola.
Treatments were applied before the emergence of Italian ryegrass, wild oat, wild buckwheat, blackgrass, littleseed canarygrass, common chickweed, common lambsquarters, corn poppy, silky windgrass, redroot pigweed, wild mustard, annual bluegrass, canola, and wheat. […] Flats were watered and fertilized routinely after treatment application.

Assay [2] has as its system weeds; Wheat and canola. Put plainly: Ex28 PRE greenhouse. The format is in vivo. The conditions noted are these: 28 DAT, rate in the words. The text has this: The tested weeds in this study are redroot pigweed (Amaranth retroflexus, AMARE), Italian ryegrass (Lolium perenne. multiflorum, LOLMU), wild mustard (Sinapis arvensis, SINAR), annual bluegrass (Poa annua, POAAN), wild oat (Avena fatua, AVEFA), blackgrass (Alopecurus myosuroides, ALOMY), common lambsquarters (Chenopodium album, CHEAL), littleseed canarygrass (Phalaris minor, PHAMI), common chickweed (Stellaria media, STEME), corn poppy (Papaver rhoeas, PAPRH), and silky windgrass (Apera spica-venti, APESV). The tested crops are wheat and canola.
Additionally, 2,4 DC was applied alone at 400 g ai/ha.
Treatments were applied before the emergence of redroot pigweed, Italian ryegrass, wild oat, blackgrass, littleseed canarygrass, common chickweed, common lambsquarters, corn poppy, wild mustard, annual bluegrass, silky windgrass, canola, and wheat. […] Flats were watered and fertilized routinely after treatment application.

The subject of another assay is common chickweed. In words: Ex14 POST 2,4-DC + bromoxynil, % control 28 DAT, Colby. The format is in vivo, Stellaria media. The text has this:
The study further assessed post crop safety on Wheat and Barley.
Nonionic surfactant at 0.5% (v/v) was included with commercial standards application. No adjuvant was applied with any other treatments. All plant species were direct seeded into 3″ plastic pots using metro-mix as growth media. At treatment application common lambsquarters was 1.75″, common chickweed was 2″, wild mustard was 2.25″, wild oat was 5.5″, wild buckwheat was 2-5″, Italian ryegrass was 2-3″, wheat was 5.5″, and barley was 4.5″ in height. Plants were watered well before application and not watered 24 h after application. Plants were watered and fertilized routinely after treatment application. Each treatment was replicated four times.

Entries after “also recorded” stand apart in the source; their conditions may differ.

As to `CC1(C)CON(Cc2ccc(Cl)cc2Cl)C1=O` [2,4-DC, 2-(2,4-dichlorophenyl)methyl-4,4-dimethyl-3-isoxazolidinone], the X stood at 38% with Pennsylvania smartweed (2,4-DC alone 125 g ai/ha); 67% in the assay with Pennsylvania smartweed (2,4-DC alone 170 g ai/ha); 80% with Pennsylvania smartweed (2,4-DC alone 210 g ai/ha); 78% in the assay with Pennsylvania smartweed (2,4-DC alone 250 g ai/ha); 0% in the assay on Common cocklebur (2,4-DC alone 50 g ai/ha); 7% with Common cocklebur (2,4-DC alone 100 g ai/ha). The X with Common cocklebur (2,4-DC alone 200 g ai/ha) worked out at 60%; with common chickweed (2,4-DC alone 125 g ai/ha) it was 9%; in the assay on common chickweed (2,4-DC alone 170 g ai/ha), 7%; in the assay on common chickweed (2,4-DC alone 210 g ai/ha), 14%; in the assay on common chickweed (2,4-DC alone 250 g ai/ha), 28%. For the same compound, the “% Control BG” value in the assay with barnyardgrass (BG) (r28-30 2,4-DC 50/100/200, r31-33 mesotrione 25/50/100, 50 g ai/ha) is listed as 97%; in the assay on barnyardgrass (BG) (r28-30 2,4-DC 50/100/200, r31-33 mesotrione 25/50/100, 100 g ai/ha), 99%. The “weed control / crop safety in words” value is “alone gave control of pigweed and Italian ryegrass at ≥200 g ai/ha, corn poppy and wild oat at 400 g, blackgrass at ≥100 g, and common chickweed at all rates” in the assay with weeds; Wheat and canola [1]; “alone provided control of pigweed and corn poppy at 400 g, Italian ryegrass at ≥200 g, blackgrass and lambsquarters at 400 g, and chickweed at all rates; also recorded: caused greater than 10% injury to canola at all rates and 2,4 DC was safe on wheat up to 200 g ai/ha” in the assay with weeds; Wheat and canola [2].
